# According to ChEMBL document CHEMBL3872214, “Synthesis and evaluation of in vivo antioxidant, in vitro antibacterial, MRSA and antifungal activity of novel substituted isatin N-(2,3,4,6-tetra-O-acetyl-β-d-glucopyranosyl)thiosemicarbazones” (Eur J Med Chem, 2016):
# What was measured:
# Type in all cases: functional
# Rattus norvegicus [1] = assay: (§1) Antioxidant activity in CCL4-intoxicated Wistar albino rat assessed as liver cytosolic superoxide dismutase activity per mg protein at 100 mg/kg, ip administered for 7 consecutive days after DL-alpha-tocopherol acetate treatment followed by CCL4 dosing measured after 24 hrs by xanthine based assay (reference value: 5.27 +/- 0.22 U)
# Rattus norvegicus [2] = assay: as §1, with “glutathione peroxidase” for “superoxide dismutase”, “H2O2” for “xanthine”, “spectrophotometric analysis” for “assay”, “0.28” for “5.27”, “0.01” for “0.22”
# Rattus norvegicus [3] = assay: as §1, with “catalase” for “superoxide dismutase”, “H2O2” for “xanthine”, “220.15” for “5.27”, “11.43” for “0.22”
# Bacillus subtilis = assay: Antibacterial activity against Bacillus subtilis ATCC 11774 after 18 to 20 hrs by two-fold microbroth dilution method
# Staphylococcus aureus [4] = assay: Antibacterial activity against Staphylococcus aureus ATCC 11632 after 18 to 20 hrs by two-fold microbroth dilution method
# [5] = system: Staphylococcus epidermidis; assay: Antibacterial activity against Staphylococcus epidermidis ATCC 12228 after 18 to 20 hrs by two-fold microbroth dilution method
# Klebsiella aerogenes = assay: Antibacterial activity against Enterobacter aerogenes ATCC 13048 after 18 to 20 hrs by two-fold microbroth dilution method
# Escherichia coli = assay: Antibacterial activity against Escherichia coli ATCC 25922 after 18 to 20 hrs by two-fold microbroth dilution method
# Klebsiella pneumoniae = assay: Antibacterial activity against Klebsiella pneumoniae ATCC 4352 after 18 to 20 hrs by two-fold microbroth dilution method
# Pseudomonas aeruginosa = assay: Antibacterial activity against Pseudomonas aeruginosa […] after 18 to 20 hrs by two-fold microbroth dilution method
# Staphylococcus aureus [6] = assay: Antibacterial activity against methicillin-resistant Staphylococcus aureus 198-1 after 18 to 20 hrs by two-fold microbroth dilution method
# Staphylococcus aureus [7] = assay: Antibacterial activity against methicillin-resistant Staphylococcus aureus 198-2 after 18 to 20 hrs by two-fold microbroth dilution method
# Staphylococcus aureus [8] = assay: Antibacterial activity against methicillin-resistant Staphylococcus aureus 198-3 after 18 to 20 hrs by two-fold microbroth dilution method
# Aspergillus niger = assay: Antifungal activity against Aspergillus niger 439 after 72 hrs by agar dilution method; conditions: Aspergillus niger, 439, 72 h
# Candida albicans = assay: Antifungal activity against Candida albicans ATCC 7754 after 72 hrs by agar dilution method; conditions: ATCC 7754, 72 h
# [9] = Antifungal activity against Fusarium oxysporum M42 after 72 hrs by agar dilution method
# [10] = Antifungal activity against Saccharomyces cerevisiae SH20 after 72 hrs by agar dilution method
SMILES,Activity (Rattus norvegicus [1]) [U],Activity (Rattus norvegicus [2]) [U],Activity (Rattus norvegicus [3]) [U],MIC (Bacillus subtilis) [µM],MIC (Staphylococcus aureus [4]) [µM],MIC [5] [µM],MIC (Klebsiella aerogenes) [µM],MIC (Escherichia coli) [µM],MIC (Klebsiella pneumoniae) [µM],MIC (Pseudomonas aeruginosa) [µM],MIC (Staphylococcus aureus [6]) [µM],MIC (Staphylococcus aureus [7]) [µM],MIC (Staphylococcus aureus [8]) [µM],MIC (Aspergillus niger) [µM],MIC (Candida albicans) [µM],MIC [9] [µM],MIC [10] [µM]
Oc1ccc(/C=C/c2cc(O)cc(O)c2)cc1 [RESVERATROL],7.31,0.33,282.12,,,,,,,,,,,,,,
CC(=O)OC[C@H]1O[C@@H](NC(=S)N/N=C2/C(=O)Nc3ccccc32)[C@H](OC(C)=O)[C@@H](OC(C)=O)[C@@H]1OC(C)=O,5.81,1.77,295.32,100,200,100,50,50,50,50,200,200,200,100,200,100,100
Clc1ccc(COC(Cn2ccnc2)c2ccc(Cl)cc2Cl)c(Cl)c1 (stereo not given) [MICONAZOLE],,,,,,,,,,,,,,1.56,3.12,3.12,3.12
CN[C@H](CC(C)C)C(=O)N[C@H]1C(=O)N[C@@H](CC(N)=O)C(=O)N[C@H]2C(=O)N[C@H]3C(=O)N[C@H](C(=O)N[C@H](C(=O)O)c4cc(O)cc(O)c4-c4cc3ccc4O)[C@H](O)c3ccc(c(Cl)c3)Oc3cc2cc(c3O[C@@H]2O[C@H](CO)[C@@H](O)[C@H](O)[C@H]2O[C@H]2C[C@](C)(N)[C@H](O)[C@H](C)O2)Oc2ccc(cc2Cl)[C@H]1O [VANCOMYCIN],,,,0.83,1.21,2.1,,,,,1.65,1.65,1.65,,,,
CC(=O)OC[C@H]1O[C@@H](NC(=S)N/N=C2/C(=O)Nc3ccc(C(C)C)cc32)[C@H](OC(C)=O)[C@@H](OC(C)=O)[C@@H]1OC(C)=O,5.82,1.75,260.61,25,12.5,12.5,50,50,25,25,12.5,12.5,12.5,100,100,25,50
CC(=O)OC[C@H]1O[C@@H](NC(=S)N/N=C2/C(=O)Nc3ccc([N+](=O)[O-])cc32)[C@H](OC(C)=O)[C@@H](OC(C)=O)[C@@H]1OC(C)=O,6.45,1.89,283.53,100,200,100,50,50,50,50,200,200,200,100,100,100,100
CC(=O)OC[C@H]1O[C@@H](NC(=S)N/N=C2/C(=O)Nc3c2cc(Cl)cc3[N+](=O)[O-])[C@H](OC(C)=O)[C@@H](OC(C)=O)[C@@H]1OC(C)=O,10.57,0.35,389.53,3.12,6.25,6.25,25,25,25,25,6.25,6.25,6.25,12.5,6.25,25,25
CC(=O)OC[C@H]1O[C@@H](NC(=S)N/N=C2/C(=O)N(CC(C)C)c3ccccc32)[C@H](OC(C)=O)[C@@H](OC(C)=O)[C@@H]1OC(C)=O,9.88,0.91,375.45,100,100,100,12.5,12.5,12.5,12.5,100,100,100,100,100,100,100
CC(=O)OC[C@H]1O[C@@H](NC(=S)N/N=C2/C(=O)Nc3ccc(F)cc32)[C@H](OC(C)=O)[C@@H](OC(C)=O)[C@@H]1OC(C)=O,9.84,0.39,379.56,3.12,3.12,3.12,50,50,50,50,1.56,3.12,1.56,12.5,6.25,12.5,6.25
